Measurements reported in PubChem BioAssay (NCI).
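Interpolation was linear, between the two tested concentrations surrounding the appropriate level; five concentrations were tested over 48 hours in 96-well plates. GI50 = concentration required for 50% inhibition of growth. At the TGI there is no net growth.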

Key:
Assay in all cases: DTP human tumour cell line panel, 48 h
SNB-19 CNS = tested on: SNB-19 CNS
SK-MEL-28 melanoma = tested on: SK-MEL-28 melanoma
SK-MEL-2 melanoma = tested on: SK-MEL-2 melanoma
MALME-3M melanoma = tested on: MALME-3M melanoma
A498 renal = tested on: A498 renal
KM12 colon = tested on: KM12 colon
RXF 393 renal = tested on: RXF 393 renal
NCI-H460 lung = tested on: NCI-H460 lung
HCT-116 colon = tested on: HCT-116 colon
NCI-H23 lung = tested on: NCI-H23 lung

**Q.** Which TGI (SNB-19 CNS) does the source give for `CC(=O)N[C@@H]1C(O)CN2C(=O)C(=O)O[C@H](C(O)CO)[C@@H]12` (some centres not stated) here?
**A.** > 100 µM

**Q.** What about the TGI (SK-MEL-28 melanoma) of the same molecule?
**A.** > 100 µM

**Q.** And the TGI (SK-MEL-2 melanoma)?
**A.** > 100 µM

**Q.** What about the TGI (MALME-3M melanoma) of the same molecule?
**A.** > 100 µM

**Q.** And the TGI (A498 renal)?
**A.** > 100 µM

**Q.** What about the TGI (KM12 colon) of the same molecule?
**A.** > 100 µM

**Q.** What about the TGI (RXF 393 renal) of the same molecule?
**A.** > 100 µM

**Q.** What about the TGI (NCI-H460 lung) of the same molecule?
**A.** > 100 µM

**Q.** And the TGI (HCT-116 colon)?
**A.** > 100 µM

**Q.** With `O=C(Nc1ccc(Cl)cc1Cl)C(=O)C(C(=O)c1ccc2ccccc2c1)C1OC(=O)c2ccccc21` (configuration not stated) as the molecule, how does the TGI (SNB-19 CNS) read?
**A.** 22.1 µM

**Q.** What about the TGI (SK-MEL-28 melanoma) of the same molecule?
**A.** 15.3 µM

**Q.** What about the TGI (SK-MEL-2 melanoma) of the same molecule?
**A.** 31.7 µM

**Q.** What about the TGI (A498 renal) of the same molecule?
**A.** 20.2 µM

**Q.** What about the TGI (NCI-H23 lung) of the same molecule?
**A.** 13.1 µM

**Q.** What about the TGI (KM12 colon) of the same molecule?
**A.** 31.9 µM

**Q.** And the TGI (RXF 393 renal)?
**A.** 11.7 µM

**Q.** What about the TGI (NCI-H460 lung) of the same molecule?
**A.** 17.3 µM

**Q.** What about the TGI (HCT-116 colon) of the same molecule?
**A.** 18 µM

**Q.** How did the GI50 (SNB-19 CNS) turn out when `O=C1C=C(NCCNC(=S)Nc2ccccc2)c2nccc3c2c1nc1ccccc13` was run?
**A.** > 100 µM

**Q.** And the TGI (SNB-19 CNS)?
**A.** > 100 µM

**Q.** And the GI50 (SK-MEL-28 melanoma)?
**A.** > 100 µM

**Q.** And the TGI (SK-MEL-28 melanoma)?
**A.** > 100 µM

**Q.** And the GI50 (SK-MEL-2 melanoma)?
**A.** > 100 µM

**Q.** What about the TGI (SK-MEL-2 melanoma) of the same molecule?
**A.** > 100 µM

**Q.** And the GI50 (MALME-3M melanoma)?
**A.** 30.1 µM

**Q.** What about the TGI (MALME-3M melanoma) of the same molecule?
**A.** > 100 µM

**Q.** And the GI50 (A498 renal)?
**A.** > 100 µM

**Q.** What about the TGI (A498 renal) of the same molecule?
**A.** > 100 µM

**Q.** And the GI50 (NCI-H23 lung)?
**A.** 31.5 µM

**Q.** What about the TGI (NCI-H23 lung) of the same molecule?
**A.** > 100 µM

**Q.** What about the GI50 (KM12 colon) of the same molecule?
**A.** 41.2 µM

**Q.** What about the TGI (KM12 colon) of the same molecule?
**A.** > 100 µM

**Q.** What about the GI50 (NCI-H460 lung) of the same molecule?
**A.** 29.4 µM

**Q.** What about the TGI (NCI-H460 lung) of the same molecule?
**A.** > 100 µM

**Q.** What about the GI50 (HCT-116 colon) of the same molecule?
**A.** 14 µM

**Q.** And the TGI (HCT-116 colon)?
**A.** > 100 µM

**Q.** What does the source list for `OCCCOC(c1ccccc1)(c1ccccc1)c1ccccc1`?
**A.** TGI (SK-MEL-28 melanoma): > 100 µM; TGI (MALME-3M melanoma): > 100 µM; TGI (NCI-H23 lung): > 100 µM; TGI (KM12 colon): > 100 µM; TGI (NCI-H460 lung): > 100 µM; TGI (HCT-116 colon): > 100 µM

**Q.** How did the TGI (SNB-19 CNS) turn out when `CC(=O)Nc1ccc(C(=O)NN2C(=O)C(Cl)C2c2ccc([N+](=O)[O-])cc2)cc1` (configuration not stated) was run?
**A.** > 100 µM

**Q.** What about the TGI (SK-MEL-28 melanoma) of the same molecule?
**A.** > 100 µM

**Q.** And the TGI (SK-MEL-2 melanoma)?
**A.** > 100 µM

**Q.** And the TGI (MALME-3M melanoma)?
**A.** > 100 µM

**Q.** And the TGI (A498 renal)?
**A.** > 100 µM

**Q.** What about the TGI (NCI-H23 lung) of the same molecule?
**A.** > 100 µM

**Q.** What about the TGI (RXF 393 renal) of the same molecule?
**A.** > 100 µM

**Q.** What about the TGI (NCI-H460 lung) of the same molecule?
**A.** > 100 µM

**Q.** And the TGI (HCT-116 colon)?
**A.** > 100 µM

**Q.** What does the source list for `COc1cc(CCN)c2c(c1OC)SSSSS2`?
**A.** GI50 (SNB-19 CNS): 2.45 µM; TGI (SNB-19 CNS): 4.72 µM; GI50 (SK-MEL-28 melanoma): 1.79 µM; TGI (SK-MEL-28 melanoma): 3.43 µM; GI50 (SK-MEL-2 melanoma): 1.1 µM; TGI (SK-MEL-2 melanoma): 2.61 µM; GI50 (MALME-3M melanoma): 2.08 µM; TGI (MALME-3M melanoma): 4.09 µM; GI50 (A498 renal): 1.98 µM; TGI (A498 renal): 3.64 µM; GI50 (NCI-H23 lung): 0.478 µM; TGI (NCI-H23 lung): 1.79 µM; GI50 (KM12 colon): 1.64 µM; TGI (KM12 colon): 3.09 µM; GI50 (NCI-H460 lung): 0.767 µM; TGI (NCI-H460 lung): 2.11 µM; GI50 (HCT-116 colon): 0.22 µM

**Q.** Which TGI (SNB-19 CNS) does the source give for `CC12N=NN(c3ccc([N+](=O)[O-])cc3)C1(O)c1ccccc1C2=O` (configuration not stated) here?
**A.** > 100 µM

**Q.** What about the TGI (MALME-3M melanoma) of the same molecule?
**A.** > 100 µM

**Q.** What about the TGI (NCI-H23 lung) of the same molecule?
**A.** > 100 µM

**Q.** What about the TGI (KM12 colon) of the same molecule?
**A.** > 100 µM

**Q.** What about the TGI (RXF 393 renal) of the same molecule?
**A.** > 100 µM

**Q.** What about the TGI (NCI-H460 lung) of the same molecule?
**A.** > 100 µM

**Q.** And the TGI (HCT-116 colon)?
**A.** > 100 µM

**Q.** Which TGI (SNB-19 CNS) does the source give for `O=C(c1ccc(Cl)cc1)c1ccc(OCCCCCCCCCCOc2ccc(C(=O)c3ccc(Cl)cc3)cc2)cc1` here?
**A.** > 100 µM

**Q.** What about the TGI (SK-MEL-28 melanoma) of the same molecule?
**A.** > 100 µM

**Q.** What about the TGI (SK-MEL-2 melanoma) of the same molecule?
**A.** > 100 µM

**Q.** And the TGI (MALME-3M melanoma)?
**A.** > 100 µM

**Q.** And the TGI (A498 renal)?
**A.** > 100 µM

**Q.** And the TGI (NCI-H23 lung)?
**A.** > 100 µM

**Q.** And the TGI (KM12 colon)?
**A.** > 100 µM

**Q.** And the TGI (RXF 393 renal)?
**A.** > 100 µM

**Q.** What about the TGI (NCI-H460 lung) of the same molecule?
**A.** > 100 µM

**Q.** For `COc1ccc(-c2nc3sc(-c4ccc(Cl)cc4)cn3n2)cc1`, which GI50 (SNB-19 CNS) is on record?
**A.** 2.47 µM

**Q.** And the TGI (SNB-19 CNS)?
**A.** > 50 µM

**Q.** What about the GI50 (SK-MEL-28 melanoma) of the same molecule?
**A.** > 50 µM

**Q.** What about the TGI (SK-MEL-28 melanoma) of the same molecule?
**A.** > 50 µM

**Q.** What about the GI50 (SK-MEL-2 melanoma) of the same molecule?
**A.** > 50 µM

**Q.** And the TGI (SK-MEL-2 melanoma)?
**A.** > 50 µM

**Q.** And the GI50 (MALME-3M melanoma)?
**A.** 2.71 µM

**Q.** What about the TGI (MALME-3M melanoma) of the same molecule?
**A.** > 50 µM

**Q.** And the GI50 (NCI-H23 lung)?
**A.** 6.66 µM

**Q.** What about the TGI (NCI-H23 lung) of the same molecule?
**A.** > 50 µM

**Q.** What about the GI50 (KM12 colon) of the same molecule?
**A.** 12.2 µM

**Q.** What about the TGI (KM12 colon) of the same molecule?
**A.** > 50 µM

**Q.** And the GI50 (RXF 393 renal)?
**A.** 6 µM

**Q.** What about the TGI (RXF 393 renal) of the same molecule?
**A.** 39.7 µM

**Q.** What about the GI50 (NCI-H460 lung) of the same molecule?
**A.** 1.33 µM

**Q.** What about the TGI (NCI-H460 lung) of the same molecule?
**A.** 4 µM

**Q.** What about the GI50 (HCT-116 colon) of the same molecule?
**A.** 1.21 µM

**Q.** And the TGI (HCT-116 colon)?
**A.** 3.48 µM
